Legend:
[1] = target: T1, human STING protein (140-379) (Homo sapiens, UniProt Q86WV6, H232R); test: Radiometric filtration binding competition assay (WT_FBA_HIS-SUMO-hSWAT); details: read-out: WT-hSWAT IC50
T1 construct: 6XHIS-SUMO-hSTING (140-379); made in house; host or cells: BL-21(DE3) E. coli, pET vector
Outline: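 His-SUMO-tagged STING ligand-binding domain (human 140-379 or mouse 139-328, 0.5 μM) preincubated 30 min with compound (8 points, 2-fold from 300 μM), then competed with a tritiated ligand. Complexes were filtered and counted by scintillation. IC50 from non-linear regression, with Ki extrapolated.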

[2] = target: T2, mouse STING protein (139-328) (Mus musculus, UniProt Q3TBT3); test: Radiometric filtration binding competition assay (MOUSE_FBA_HIS-SUMO-mSWAT); details: read-out: WT-mSWAT IC50
T2 construct: mouse STING protein (139-328); made in house
T2 sequence (Q3TBT3 139-328): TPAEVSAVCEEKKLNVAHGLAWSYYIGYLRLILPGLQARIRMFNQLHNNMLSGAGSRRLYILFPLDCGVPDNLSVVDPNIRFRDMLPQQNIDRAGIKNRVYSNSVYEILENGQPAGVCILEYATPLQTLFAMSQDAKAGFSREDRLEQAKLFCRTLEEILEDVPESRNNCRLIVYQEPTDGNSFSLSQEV
Experimental: A radiometric filtration binding competition assay was performed to quantify the binding affinity of compounds of the present application for the human or mouse STING protein, or associated HAQ human isoform. The competition format filtration binding assay detects the ability of small molecule compounds from binding to and inhibiting the subsequent binding of a tritiated [H3] […] The resulting dose response was fit by non-linear regression to determine an IC50 value, from which a Ki value for each compound was extrapolated.
Briefly, the recombinant C-terminal ligand binding domain of the human STING protein (140-379) or mouse STING protein (139-328) [0.5 μM] was incubated in the presence of a compound of the present application (8 point, 2 fold dilution starting at 300 μM) for 30 min or under control conditions. […] The resulting complexes were then filtered, dried, and scintillation fluid was added and the remaining radio signal was measured to determine the degree of compound ligand inhibition. This assay format was optimized for both the WT and HAQ isoforms of the human protein and the mouse orthologue protein.
Parameters optimized: • a. Form of protein: 6×HIS-SUMO tag or untagged • b. Concentration of target protein: Minimum concentration that achieved >80 max signal • c. Assay DMSO concentration: 10%-0.1% • d. […]

[3] = target: T3, hSTING-R232 (Homo sapiens, UniProt Q86WV6, H232R); test: STING Differential Scanning Fluorimetry (DSF) assay, human; assay type: binding; details: human STING R232-WT, 5 μM protein
T3 construct: recombinant mouse or human STING protein (aa140-379); 6xHis-SUMO elsewhere) (cleaved yes); made in house
T3 sequence (Q86WV6 140-379 H232R): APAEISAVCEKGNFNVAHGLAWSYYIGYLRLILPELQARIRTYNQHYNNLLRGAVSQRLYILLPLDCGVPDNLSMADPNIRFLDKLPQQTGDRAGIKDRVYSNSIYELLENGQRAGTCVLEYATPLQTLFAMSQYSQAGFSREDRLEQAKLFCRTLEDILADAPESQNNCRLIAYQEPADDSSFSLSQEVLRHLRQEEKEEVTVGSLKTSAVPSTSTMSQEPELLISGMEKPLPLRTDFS
Outline: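 Purified STING C-terminal domain (aa140-379, R232), human or mouse, at 5 μM in 100 mM NaCl, 30 mM HEPES pH 7.5 with SYBR Orange, was heated at 0.5° C./min. Tm came from dF/dT; ΔTm and FC50 were derived from an 11-point 2-fold series from 300 μM, in duplicate.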

[4] = target: T4, mSTING-R232 (aa139-378) (Mus musculus, UniProt Q3TBT3); test: STING Differential Scanning Fluorimetry (DSF) assay, mouse; assay type: binding; details: 5 μM protein
T4 construct: mSTING-R232 (aa139-378); 6xHis-SUMO; made in house
T4 sequence (Q3TBT3 139-378): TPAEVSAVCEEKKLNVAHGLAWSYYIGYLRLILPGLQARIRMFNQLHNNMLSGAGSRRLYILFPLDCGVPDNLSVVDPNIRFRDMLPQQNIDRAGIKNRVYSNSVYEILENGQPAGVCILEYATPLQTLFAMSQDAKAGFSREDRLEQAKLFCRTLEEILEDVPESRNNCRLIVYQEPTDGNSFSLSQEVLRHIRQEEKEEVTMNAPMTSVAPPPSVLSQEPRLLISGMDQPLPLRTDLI
Experimental: A STING DSF assay was performed to determine protein thermostability shift in response to small molecule ligand binding. A STING thermostability shift assay based on differential scanning fluorimetry was used to measure (1) the net shift in melting temperature (ΔTm)between the apo and ligand-bound states of the STING protein and (2) the concentration of the thermal denaturation transition (FC50) as a surrogate measure of binding affinity (Kd). Briefly, recombinant mouse or human STING protein (aa140-379) comprising the C-terminal binding domain (R232-WT) were purified by affinity chromatography and further processed to remove the purification tag, followed by gel filtration to achieve purity >95%. Protein in assay buffer was transferred to a 384 well plate and incubated with the hydrophobic fluorescent dye SYBR Orange. A temperature ramp was applied to the plate and the resulting dye fluorescence was plotted as a function of temperature. The first derivative of this function (dF/dT) was then used to extrapolate the melting temperature of the protein at various concentrations of compound and determine the thermal denaturation profile of a protein/compound complex.
2. 5 μM purified Target STING Protein
4. Buffer: 100 mM NaCl, 30 mM HEPES, pH 7.5
5. Thermal Ramp: 0.5° C./min
7. 11 point, 2 fold dilution, duplicate, 300 μM high concentrations

[5] = target: T5, STING protein (Homo sapiens, UniProt Q86WV6, H232R); test: Cell based reporter assay of IRF activation (THP1-dual-KI R232, IRF luciferase); details: THP-1; read-out: THP1-dual-KI R232_IRF(Luciferase)_Activity Maximum measured (%)
T5 construct: host or cells: THP-1 dual reporter cells, TMEM173 modified from HAQ to R232 (THP1-dual-KI R232)
T5 sequence (Q86WV6 whole entry H232R): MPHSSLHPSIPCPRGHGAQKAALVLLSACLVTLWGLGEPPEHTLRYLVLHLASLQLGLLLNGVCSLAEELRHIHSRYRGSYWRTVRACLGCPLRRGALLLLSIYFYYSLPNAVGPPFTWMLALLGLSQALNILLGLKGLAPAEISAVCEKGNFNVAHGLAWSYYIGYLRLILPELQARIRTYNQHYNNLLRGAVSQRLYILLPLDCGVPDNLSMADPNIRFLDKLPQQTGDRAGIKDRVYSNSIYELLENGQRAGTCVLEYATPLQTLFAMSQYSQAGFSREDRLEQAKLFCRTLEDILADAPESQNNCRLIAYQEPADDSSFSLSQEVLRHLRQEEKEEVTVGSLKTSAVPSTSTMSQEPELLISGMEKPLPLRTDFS
Outline: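 THP-1 monocytes stably carried an ISG54/5×ISRE firefly luciferase IRF reporter, with TMEM173 knock-in H71R A230G Q293R (R232 variant), and there was no PMA pre-activation. Compounds were tested at 8 points, 2-fold, in duplicate from 150 µM. Cell Titer Glo was applied after supernatant removal.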

T1 sequence (Q86WV6 140-379 H232R): as the sequence (Q86WV6 140-379 H232R) above

Compound | IC50 [1] [µM] | IC50 [2] [µM] | WT_DSF_hSWAT Tm Shift (° C.) [3] | MOUSE DSF_6xHIS-SUMO Tm Shift (° C.) [4] | Emax [5] [%]
CCOc1c(Cl)ccc2c(=O)c3ccc(C)nc3n(CC(=O)O)c12 [Compound 2] | 100 to 300 | 100 to 300 | C (“C” = 2-7° C.) | C (“C” = 5-15° C.) | > 50
CCOc1c(Cl)ccc2c(=O)c3ccc(C(C)C)nc3n(CC(=O)O)c12 [Compound 3] | 20 to 100 | 20 to 100 | D (“D” > 7° C.) | C (“C” = 5-15° C.) | > 50

— patent US20220251079A1, “BENZO[B][1,8]NAPHTHYRIDINE ACETIC ACID DERIVATIVES AND METHODS OF USE” (STINGTHERA, INC., priority 2019, published 2022)
